Experimental data published in PubChem BioAssay AID322 (DTP/NCI, 2004).
“And” between values parts separate entries of the source, which are not always exact repeats. Equal entries are not always repeated. Toxic doses and inconclusive results are not listed. *1 amine or outer side, *2 acyl side, *3 side chain or, on linkers, in order; H or OH if unused. Where a SMILES comes first, the peptide text is derived from it. Bridges are numbered along the chain shown (N, C = ends). Roman numbers before positions name the chains, in order. [ ]: non-standard residue; d: D form. Actinocin(9to1) = Cc1c2oc3c(C)ccc(C(=O)[*:1])c3nc-2c(C(=O)[*:2])c(N)c1=O; aThr = C[C@H](O)[C@H](N)C(=O)O; NMeV = CN[C@H](C(=O)O)C(C)C; Sar = CNCC(=O)O

System: CD2F1 mice, P388/ADR leukemia ip, median survival T/C
Assay: NCI In Vivo Anticancer Drug Screen. Data for tumor model P388 Leukemia resistant to Adriamycin; NSC 123127, Developed at Scr 08 (intraperitoneal) in CD2F1 (CDF1) mice
Settings: endpoint: median survival time, higher = longer survival
Protocol: The antitumor activity of compounds was measured in mice bearing transplantable tumors. Survival or tumor size were measured and the results are expressed as the measurement made in the treated group (T) divided by the measurement made in the vehicle treated control group (C). The tumor model used in this assay is P388 Leukemia resistant to Adriamycin; NSC 123127, Developed at Scr 08 (intraperitoneal) in CD2F1 (CDF1) mice

With `COc1cc(NCc2ccc3nc(N)nc(N)c3c2C)cc(OC)c1OC` the T/C (dose: 18.0 mg/kg/injection, schedule: Q01DX009 (ip), vehicle: distilled water + Tween-80) was 112 % of control, the T/C (dose: 27.0 mg/kg/injection, schedule: Q01DX009 (ip), vehicle: distilled water + Tween-80) was 118 % of control and the T/C (dose: 40.0 mg/kg/injection, schedule: Q01DX009 (ip), vehicle: distilled water + Tween-80) was 156 % of control. The T/C (dose: 60.0 mg/kg/injection, schedule: Q01DX009 (ip), vehicle: distilled water + Tween-80) was 184 % of control and the T/C (dose: 110.0 mg/kg/injection, schedule: Q01DX009 (ip), vehicle: distilled water + Tween-80) was 94 % of control.

For `CCOc1ccc(-c2nc3ccc(-c4nc5ccc(N6CCN(C)CC6)cc5[nH]4)cc3[nH]2)cc1`, the T/C (dose: 1.56 mg/kg/injection, schedule: Q01DX005 (ip), vehicle: water) was 109 % of control, the T/C (dose: 3.12 mg/kg/injection, schedule: Q01DX005 (ip), vehicle: water) was 106 % of control and the T/C (dose: 6.25 mg/kg/injection, schedule: Q01DX005 (ip), vehicle: water) was 107 % of control. The T/C (dose: 12.5 mg/kg/injection, schedule: Q01DX005 (ip), vehicle: water) was 91 % of control.

`CC1(C)N=C(N)N=C(N)N1c1ccc(CCCCc2ccc(S(=O)(=O)F)cc2Cl)c(Cl)c1` was tested, and the T/C (dose: 18.0 mg/kg/injection, schedule: Q01DX009 (ip), vehicle: saline with Tween-80) was 87 % of control, the T/C (dose: 27.0 mg/kg/injection, schedule: Q01DX009 (ip), vehicle: saline with Tween-80) was 89 % of control and 101 % of control and the T/C (dose: 40.0 mg/kg/injection, schedule: Q01DX009 (ip), vehicle: saline with Tween-80) was 88 % of control and 102 % of control. The T/C (dose: 60.0 mg/kg/injection, schedule: Q01DX009 (ip), vehicle: saline with Tween-80) was 112 % of control, the T/C (dose: 90.0 mg/kg/injection, schedule: Q01DX009 (ip), vehicle: saline with Tween-80) was 91 % of control and 110 % of control and the T/C (dose: 110.0 mg/kg/injection, schedule: Q01DX009 (ip), vehicle: saline with Tween-80) was 115 % of control.

For `CSC1SCC2C(=O)N(C)C(C(C)C)C(=O)OCC(NC(=O)c3cnc4ccccc4n3)C(=O)NC(C)C(=O)N(C)C1C(=O)N(C)C(C(C)C)C(=O)OCC(NC(=O)c1cnc3ccccc3n1)C(=O)NC(C)C(=O)N2C` (stereo not drawn), the T/C (dose: 44.0 micrograms/kg/injection, schedule: Q01DX005 (ip), vehicle: saline) was 152 % of control, the T/C (dose: 100.0 micrograms/kg/injection, schedule: Q01DX005 (ip), vehicle: saline) was 151 % of control and the T/C (dose: 150.0 micrograms/kg/injection, schedule: Q01DX005 (ip), vehicle: saline) was 152 % of control.

For `COc1cccc2c1C(=O)c1c(O)c3c(c(O)c1C2=O)C[C@@](O)(C(=O)CO)C[C@@H]3OC1CC(N)C(O)C(C)O1` (stereo partly drawn), the T/C (dose: 0.38 mg/kg/injection, schedule: Q01DX009 (ip), vehicle: saline) was 118 % of control, the T/C (dose: 0.43 mg/kg/injection, schedule: Q01DX009 (ip), vehicle: saline) was 86 % of control and the T/C (dose: 0.75 mg/kg/injection, schedule: Q01DX009 (ip), vehicle: saline) was 109 % of control. For the same compound, the T/C (dose: 0.97 mg/kg/injection, schedule: Q04DX002 (ip), vehicle: saline) was 110 % of control, the T/C (dose: 0.97 mg/kg/injection, schedule: Q04DX003 (ip), vehicle: saline) was 98 % of control and the T/C (dose: 0.97 mg/kg/injection, schedule: Q04DX003 (ip), vehicle: water) was 100 % of control. The T/C (dose: 1.2 mg/kg/injection, schedule: Q01DX009 (ip), vehicle: saline) was 98 % of control, the T/C (dose: 1.25 mg/kg/injection, schedule: Q01DX001 (ip), vehicle: saline) was 118 % of control and the T/C (dose: 1.5 mg/kg/injection, schedule: Q01DX009 (ip), vehicle: saline) was 108 % of control. The T/C (dose: 1.62 mg/kg/injection, schedule: Q04DX002 (ip), vehicle: saline) was 111 % of control, the T/C (dose: 1.62 mg/kg/injection, schedule: Q04DX003 (ip), vehicle: saline) was 107 % of control and the T/C (dose: 1.62 mg/kg/injection, schedule: Q04DX003 (ip), vehicle: water) was 100 % of control. For the same compound, the T/C (dose: 2.0 mg/kg/injection, schedule: Q01DX009 (ip), vehicle: saline) was 86 % of control, the T/C (dose: 2.16 mg/kg/injection, schedule: Q04DX003 (ip), vehicle: saline) was 100 % of control and the T/C (dose: 2.5 mg/kg/injection, schedule: Q01DX001 (ip), vehicle: water) was 124 % of control. The T/C (dose: 2.7 mg/kg/injection, schedule: Q04DX002 (ip), vehicle: saline) was 117 % of control, the T/C (dose: 2.7 mg/kg/injection, schedule: Q04DX003 (ip), vehicle: saline) was 100 % of control and the T/C (dose: 2.7 mg/kg/injection, schedule: Q04DX003 (ip), vehicle: water) was 101 % of control. For the same compound, the T/C (dose: 3.33 mg/kg/injection, schedule: Q01DX009 (ip), vehicle: saline) was 90 % of control, the T/C (dose: 3.6 mg/kg/injection, schedule: Q04DX003 (ip), vehicle: saline) was 102 % of control and the T/C (dose: 4.4 mg/kg/injection, schedule: Q01DX001 (ip), vehicle: saline) was 120 % of control. The T/C (dose: 4.5 mg/kg/injection, schedule: Q04DX002 (ip), vehicle: saline) was 120 % of control, the T/C (dose: 4.5 mg/kg/injection, schedule: Q04DX003 (ip), vehicle: saline) was 102 % of control and the T/C (dose: 4.5 mg/kg/injection, schedule: Q04DX003 (ip), vehicle: water) was 94 % of control. The T/C (dose: 4.5 mg/kg/injection, schedule: Q04DX003 (iv), vehicle: saline) was 109 % of control, the T/C (dose: 5.0 mg/kg/injection, schedule: Q01DX001 (ip), vehicle: water) was 109 % of control and the T/C (dose: 6.0 mg/kg/injection, schedule: Q04DX003 (ip), vehicle: saline) was 106 % of control. The T/C (dose: 6.2 mg/kg/injection, schedule: Q01DX001 (ip), vehicle: saline) was 116 % of control, the T/C (dose: 6.7 mg/kg/injection, schedule: Q01DX005 (ip), vehicle: saline) was 152 % of control and the T/C (dose: 6.7 mg/kg/injection, schedule: Q04DX003 (iv), vehicle: saline) was 102 % of control. The T/C (dose: 7.5 mg/kg/injection, schedule: Q04DX002 (ip), vehicle: saline) was 121 % of control, the T/C (dose: 7.5 mg/kg/injection, schedule: Q04DX003 (ip), vehicle: water) was 92 % of control and the T/C (dose: 10.0 mg/kg/injection, schedule: Q01DX001 (ip), vehicle: water) was 107 % of control. The T/C (dose: 10.0 mg/kg/injection, schedule: Q04DX003 (ip), vehicle: saline) was 87 % of control, the T/C (dose: 10.0 mg/kg/injection, schedule: Q04DX003 (iv), vehicle: saline) was 90 % of control and the T/C (dose: 12.5 mg/kg/injection, schedule: Q01DX001 (ip), vehicle: saline) was 109 % of control and 119 % of control. The T/C (dose: 15.0 mg/kg/injection, schedule: Q01DX005 (ip), vehicle: saline) was 107 % of control, the T/C (dose: 15.0 mg/kg/injection, schedule: Q04DX003 (iv), vehicle: saline) was 88 % of control and the T/C (dose: 16.0 mg/kg/injection, schedule: Q04DX003 (ip), vehicle: saline) was 90 % of control. The T/C (dose: 20.0 mg/kg/injection, schedule: Q01DX001 (ip), vehicle: water) was 88 % of control.

In the case of `Cc1c2oc3c(C)ccc(C(=O)N[C@@H]4C(=O)N[C@H](C(C)C)C(=O)N5CCC[C@H]5C(=O)N(C)CC(=O)N(C)[C@@H](C(C)C)C(=O)O[C@H]4C)c3nc-2c(C(=O)N[C@@H]2C(=O)N[C@H](C(C)C)C(=O)N3CCC[C@H]3C(=O)N(C)CC(=O)N(C)[C@@H](C(C)C)C(=O)O[C@H]2C)c(N)c1=O` (I: [aThr][dV]P[Sar][NMeV] / II: [aThr][dV]P[Sar][NMeV]; ester I:1-I:C, II:1-II:C; linker I:N-II:N via Actinocin(9to1)), the T/C (dose: 25.0 micrograms/kg/injection, schedule: Q01DX005 (ip), vehicle: saline + alcohol) was 124 % of control, the T/C (dose: 50.0 micrograms/kg/injection, schedule: Q01DX005 (ip), vehicle: saline + alcohol) was 120 % of control and the T/C (dose: 100.0 micrograms/kg/injection, schedule: Q01DX005 (ip), vehicle: saline + alcohol) was 101 % of control.

In the case of `O=C1NC2(CCCCC2)C(=O)N1CCN(CCCl)CCCl`, the T/C (dose: 2.6 mg/kg/injection, schedule: Q01DX009 (ip), vehicle: Klucel (hydroxypropylcellulose) (HPC)) was 195 % of control, the T/C (dose: 4.0 mg/kg/injection, schedule: Q01DX009 (ip), vehicle: Klucel (hydroxypropylcellulose) (HPC)) was 236 % of control and the T/C (dose: 6.0 mg/kg/injection, schedule: Q01DX009 (ip), vehicle: Klucel (hydroxypropylcellulose) (HPC)) was 226 % of control. The T/C (dose: 9.0 mg/kg/injection, schedule: Q01DX009 (ip), vehicle: Klucel (hydroxypropylcellulose) (HPC)) was 239 % of control.

With `N=C(N)c1ccc(N=NNc2ccc(C(=N)N)cc2)cc1` the T/C (dose: 12.5 mg/kg/injection, schedule: Q01DX005 (ip), vehicle: saline with Tween-80) was 105 % of control, the T/C (dose: 25.0 mg/kg/injection, schedule: Q01DX005 (ip), vehicle: saline with Tween-80) was 115 % of control and the T/C (dose: 50.0 mg/kg/injection, schedule: Q01DX005 (ip), vehicle: saline with Tween-80) was 117 % of control.
